Experimental data reported in ChEMBL document CHEMBL1201861, “Genomics of Drug Sensitity in Cancer screening data, Wellcome Trust Sanger Institute”.

How the values were obtained:
Experiment in all cases: cells
COLO-800 = type: functional, cell-based, Homo sapiens; details: Homo sapiens, COLO-800;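 further: growth inhibition of COLO-800 cells, read out with a cell viability assay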
Description: SANGER: Inhibition of human COLO-800 cell growth in a cell viability assay.

Ca-Ski = type: functional, cell-based; details: Homo sapiens;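 further: cell viability assay measuring inhibition of Ca-Ski cell growth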
Description: SANGER: Inhibition of human Ca-Ski cell growth in a cell viability assay.

DSH1 = type: functional, cell-based, Homo sapiens; details: Homo sapiens, DSH1;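 further: growth inhibition of human DSH1 cells, measured with a cell viability readout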
Description: SANGER: Inhibition of human DSH1 cell growth in a cell viability assay.

EC-GI-10 = type: functional, cell-based, Homo sapiens; details: Homo sapiens, EC-GI-10
Description: SANGER: Inhibition of human EC-GI-10 cell growth in a cell viability assay.

ES3 = type: functional, cell-based, Homo sapiens; details: Homo sapiens, ES3;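 further: growth inhibition of ES3 cells, read out with a cell viability assay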
Description: SANGER: Inhibition of human ES3 cell growth in a cell viability assay.

EW-18 = type: functional, cell-based; details: Homo sapiens;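 further: growth inhibition of EW-18 cells, read out by a cell viability assay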
Description: SANGER: Inhibition of human EW-18 cell growth in a cell viability assay.

GI-ME-N = type: functional, cell-based, Homo sapiens; details: Homo sapiens, GI-ME-N;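 further: growth inhibition of human GI-ME-N cells, read out with a cell viability assay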
Description: SANGER: Inhibition of human GI-ME-N cell growth in a cell viability assay.

GMS-10 = type: functional, cell-based, Homo sapiens; details: Homo sapiens, GMS-10;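 further: growth inhibition of GMS-10 cells, read out as cell viability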
Description: SANGER: Inhibition of human GMS-10 cell growth in a cell viability assay.

GOTO = type: functional, cell-based, Homo sapiens; details: Homo sapiens, GOTO;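 further: growth inhibition of GOTO cells, read out by a cell viability assay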
Description: SANGER: Inhibition of human GOTO cell growth in a cell viability assay.

GP5d = type: functional, cell-based, Homo sapiens; details: Homo sapiens, GP5d;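 further: growth inhibition of human GP5d cells, read out with a cell viability assay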
Description: SANGER: Inhibition of human GP5d cell growth in a cell viability assay.

H4 = type: functional, cell-based; details: Homo sapiens
Description: SANGER: Inhibition of human H4 cell growth in a cell viability assay.

HAL-01 = type: functional, cell-based; details: Homo sapiens;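 further: growth inhibition of human HAL-01 cells, read out with a cell viability assay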
Description: SANGER: Inhibition of human HAL-01 cell growth in a cell viability assay.

HCC1806 = type: functional, cell-based, Homo sapiens; details: Homo sapiens, HCC1806;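 further: growth inhibition of the cancer cell line, determined with a cell viability assay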
Description: SANGER: Inhibition of human HCC1806 cell growth in a cell viability assay.

HDLM-2 = type: functional, cell-based; details: Homo sapiens;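 further: cell viability assay measuring suppression of HDLM-2 proliferation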
Description: SANGER: Inhibition of human HDLM-2 cell growth in a cell viability assay.

HEL = type: functional, cell-based, Homo sapiens; details: Homo sapiens, HEL;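 further: growth inhibition of HEL cells, read out with a cell viability assay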
Description: SANGER: Inhibition of human HEL cell growth in a cell viability assay.

HuO-3N1 = type: functional, cell-based, Homo sapiens; details: Homo sapiens, HuO-3N1;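 further: cell viability readout used to measure how strongly compounds suppress proliferation of human HuO-3N1 cells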
Description: SANGER: Inhibition of human HuO-3N1 cell growth in a cell viability assay.

KYSE-410 = type: functional, cell-based, Homo sapiens; details: Homo sapiens, KYSE-410;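 further: growth inhibition of KYSE-410 cells, measured through a cell viability readout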
Description: SANGER: Inhibition of human KYSE-410 cell growth in a cell viability assay.

KYSE-450 = type: functional, cell-based; details: Homo sapiens;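 further: cell growth inhibition measured by a viability assay in human KYSE-450 cells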
Description: SANGER: Inhibition of human KYSE-450 cell growth in a cell viability assay.

LCLC-97TM1 = type: functional, cell-based, Homo sapiens; details: Homo sapiens, LCLC-97TM1;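 further: cell viability assay measuring growth inhibition of human LCLC-97TM1 cells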
Description: SANGER: Inhibition of human LCLC-97TM1 cell growth in a cell viability assay.

M059J = type: functional, cell-based, Homo sapiens; details: Homo sapiens, M059J;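 further: growth inhibition of M059J cells, read out with a cell viability assay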
Description: SANGER: Inhibition of human M059J cell growth in a cell viability assay.

MCF7 = type: functional, cell-based, Homo sapiens; details: Homo sapiens, MCF7;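 further: growth inhibition of human MCF7 cells, read out with a cell viability assay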
Description: SANGER: Inhibition of human MCF7 cell growth in a cell viability assay.

MDA-MB-175-VII = type: functional, cell-based, Homo sapiens; details: Homo sapiens, MDA-MB-175-VII
MFM-223 = type: functional, cell-based, Homo sapiens; details: Homo sapiens, MFM-223
Description: SANGER: Inhibition of human MFM-223 cell growth in a cell viability assay.

MHH-PREB-1 = type: functional, cell-based; details: Homo sapiens;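 further: cell viability assay measuring inhibition of proliferation of human MHH-PREB-1 cells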
Description: SANGER: Inhibition of human MHH-PREB-1 cell growth in a cell viability assay.

MOLT-4 = type: functional, cell-based; details: Homo sapiens;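 further: growth inhibition of MOLT-4 cells, determined with a cell viability readout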
Description: SANGER: Inhibition of human MOLT-4 cell growth in a cell viability assay.

MZ7-mel = type: functional, cell-based, Homo sapiens; details: Homo sapiens, MZ7-mel;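 further: growth inhibition of human MZ7-mel cells, measured by a cell viability assay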
Description: SANGER: Inhibition of human MZ7-mel cell growth in a cell viability assay.

NB5 = type: functional, cell-based, Homo sapiens; details: Homo sapiens, NB5;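 further: growth inhibition of NB5 cells, read out as cell viability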
Description: SANGER: Inhibition of human NB5 cell growth in a cell viability assay.

NCI-H1155 = type: functional, cell-based; details: Homo sapiens;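 further: cell growth inhibition measured by a viability assay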
Description: SANGER: Inhibition of human NCI-H1155 cell growth in a cell viability assay.

NCI-H1437 = type: functional, cell-based, Homo sapiens; details: Homo sapiens, NCI-H1437;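 further: growth inhibition of human NCI-H1437 cells, read out by a cell viability assay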
Description: SANGER: Inhibition of human NCI-H1437 cell growth in a cell viability assay.

NCI-H1648 = type: functional, cell-based, Homo sapiens; details: Homo sapiens, NCI-H1648;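 further: cell viability assay measuring inhibition of NCI-H1648 cell growth, from the Sanger screening data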
Description: SANGER: Inhibition of human NCI-H1648 cell growth in a cell viability assay.

NCI-H1651 = type: functional, cell-based, Homo sapiens; details: Homo sapiens, NCI-H1651;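 further: Read-out is a cell viability assay, with IC50 expressing inhibition of NCI-H1651 cell growth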
Description: SANGER: Inhibition of human NCI-H1651 cell growth in a cell viability assay.

NCI-H1792 = type: functional, cell-based, Homo sapiens; details: Homo sapiens, NCI-H1792;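 further: growth inhibition of human NCI-H1792 cells, read out as cell viability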
Description: SANGER: Inhibition of human NCI-H1792 cell growth in a cell viability assay.

NCI-H82 = type: functional, cell-based; details: Homo sapiens;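 further: growth inhibition of NCI-H82 cells, measured with a cell viability readout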
Description: SANGER: Inhibition of human NCI-H82 cell growth in a cell viability assay.

NMC-G1 = type: functional, cell-based, Homo sapiens; details: Homo sapiens, NMC-G1;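 further: growth inhibition of the NMC-G1 cell line, measured with a cell viability read-out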
Description: SANGER: Inhibition of human NMC-G1 cell growth in a cell viability assay.

ONS-76 = type: functional, cell-based, Homo sapiens; details: Homo sapiens, ONS-76;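 further: growth inhibition of human ONS-76 cells, read out with a cell viability assay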
Description: SANGER: Inhibition of human ONS-76 cell growth in a cell viability assay.

SK-MEL-2 = type: functional, cell-based, Homo sapiens; details: Homo sapiens, SK-MEL-2;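 further: growth inhibition of human SK-MEL-2 cells measured with a cell viability assay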
Description: SANGER: Inhibition of human SK-MEL-2 cell growth in a cell viability assay.

SK-MEL3 = type: functional, cell-based, Homo sapiens, SK-MEL-3; details: Homo sapiens, SK-MEL3;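 further: growth inhibition of human SK-MEL-3 cells, read out with a cell viability assay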
Description: SANGER: Inhibition of human SK-MEL-3 cell growth in a cell viability assay.

SK-N-DZ = type: functional, cell-based, Homo sapiens; details: Homo sapiens, SK-N-DZ;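 further: growth inhibition of the cancer cell line, read out through a viability assay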
Description: SANGER: Inhibition of human SK-N-DZ cell growth in a cell viability assay.

SW756 = type: functional, cell-based, Homo sapiens; details: Homo sapiens, SW756;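 further: growth inhibition of human SW756 cells, read out with a cell viability assay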
Description: SANGER: Inhibition of human SW756 cell growth in a cell viability assay.

TE-1 = type: functional, cell-based, Homo sapiens; details: Homo sapiens, TE-1
Description: SANGER: Inhibition of human TE-1 cell growth in a cell viability assay.

697 = type: functional, cell-based; details: Homo sapiens
Description: SANGER: Inhibition of human 697 cell growth in a cell viability assay.

A498 = type: functional, cell-based, Homo sapiens; details: Homo sapiens, A498;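 further: growth inhibition of human A498 cells, read out with a cell viability assay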
Description: SANGER: Inhibition of human A498 cell growth in a cell viability assay.

A673 = type: functional, cell-based, Homo sapiens; details: Homo sapiens, A673;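 further: growth inhibition of human A673 cells, read out through a cell viability assay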
Description: SANGER: Inhibition of human A673 cell growth in a cell viability assay.

ASPC1 = type: functional, cell-based, Homo sapiens; details: Homo sapiens, ASPC1;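 further: growth inhibition of AsPC-1 cells, read out with a cell viability assay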
Description: SANGER: Inhibition of human AsPC-1 cell growth in a cell viability assay.

BCPAP = type: functional, cell-based, Homo sapiens; details: Homo sapiens, BCPAP;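 further: growth inhibition of BCPAP cells, read out in a cell viability assay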
Description: SANGER: Inhibition of human BCPAP cell growth in a cell viability assay.

BHY = type: functional, cell-based, Homo sapiens; details: Homo sapiens, BHY;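 further: cell growth inhibition read out by a viability assay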
Description: SANGER: Inhibition of human BHY cell growth in a cell viability assay.

CAL-33 = type: functional, cell-based, Homo sapiens; details: Homo sapiens, CAL-33;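 further: growth inhibition of CAL-33 cells, read out with a cell viability assay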
Description: SANGER: Inhibition of human CAL-33 cell growth in a cell viability assay.

CAL-39 = type: functional, cell-based, Homo sapiens; details: Homo sapiens, CAL-39;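 further: cell viability assay measuring growth inhibition of CAL-39 cells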
Description: SANGER: Inhibition of human CAL-39 cell growth in a cell viability assay.

CAL-54 = type: functional, cell-based, Homo sapiens; details: Homo sapiens, CAL-54;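 further: growth inhibition of CAL-54 cells, read out by a viability measurement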
Description: SANGER: Inhibition of human CAL-54 cell growth in a cell viability assay.

TE-12 = type: functional, cell-based; details: Homo sapiens;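 further: growth inhibition of TE-12 cells, read out by a cell viability assay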
Description: SANGER: Inhibition of human TE-12 cell growth in a cell viability assay.

VMRC-RCZ = type: functional, cell-based; details: Homo sapiens;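 further: growth inhibition measured with a cell viability assay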
Description: SANGER: Inhibition of human VMRC-RCZ cell growth in a cell viability assay.

CCRF-CEM = type: functional, cell-based; details: Homo sapiens;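 further: inhibition of CCRF-CEM cell growth, measured by a cell viability assay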
Description: SANGER: Inhibition of human CCRF-CEM cell growth in a cell viability assay.

Compound `O=C(NOCC1CC1)c1ccc(F)c(F)c1Nc1ccc(I)cc1Cl` [CI-1040] has an IC50 (COLO-800) greater than 10000 nM, an IC50 (Ca-Ski) greater than 10000 nM and an IC50 (DSH1) greater than 10000 nM. It also gave an IC50 (EC-GI-10) greater than 10000 nM, an IC50 (ES3) greater than 10000 nM and an IC50 (EW-18) greater than 10000 nM. For the same compound, the IC50 (GI-ME-N) was greater than 10000 nM, the IC50 (GMS-10) was greater than 10000 nM and the IC50 (GOTO) was greater than 10000 nM. For the same compound, the IC50 (GP5d) was 983 nM, the IC50 (H4) was 5040 nM and the IC50 (HAL-01) was greater than 10000 nM. It also gave an IC50 (HCC1806) greater than 10000 nM, an IC50 (HDLM-2) greater than 10000 nM and an IC50 (HEL) greater than 10000 nM. The IC50 (HuO-3N1) was greater than 10000 nM, the IC50 (KYSE-410) was greater than 10000 nM and the IC50 (KYSE-450) was greater than 10000 nM. For the same compound, the IC50 (LCLC-97TM1) was 1920 nM, the IC50 (M059J) was greater than 10000 nM and the IC50 (MCF7) was greater than 10000 nM. The IC50 (MDA-MB-175-VII) was greater than 10000 nM, the IC50 (MFM-223) was greater than 10000 nM and the IC50 (MHH-PREB-1) was 4120 nM. The IC50 (MOLT-4) was greater than 10000 nM, the IC50 (MZ7-mel) was 263 nM and the IC50 (NB5) was 4600 nM. For the same compound, the IC50 (NCI-H1155) was 5400 nM, the IC50 (NCI-H1437) was 1550 nM and the IC50 (NCI-H1648) was greater than 10000 nM. It also gave an IC50 (NCI-H1651) greater than 10000 nM, an IC50 (NCI-H1792) of 9450 nM and an IC50 (NCI-H82) greater than 10000 nM. The IC50 (NMC-G1) was greater than 10000 nM, the IC50 (ONS-76) was 1220 nM and the IC50 (SK-MEL-2) was 1570 nM. It also gave an IC50 (SK-MEL3) of 3850 nM, an IC50 (SK-N-DZ) greater than 10000 nM and an IC50 (SW756) greater than 10000 nM. It also gave an IC50 (TE-1) greater than 10000 nM, an IC50 697 of 3700 nM and an IC50 (A498) greater than 10000 nM. For the same compound, the IC50 (A673) was 8630 nM, the IC50 (ASPC1) was 5370 nM and the IC50 (BCPAP) was 5330 nM. The IC50 (BHY) was greater than 10000 nM, the IC50 (CAL-33) was 5120 nM and the IC50 (CAL-39) was 2900 nM. For the same compound, the IC50 (CAL-54) was 5030 nM, the IC50 (TE-12) was 9030 nM and the IC50 (VMRC-RCZ) was greater than 10000 nM. The IC50 (CCRF-CEM) was greater than 10000 nM.

`Nc1ccn([C@@H]2O[C@H](CO)[C@@H](O)[C@@H]2O)c(=O)n1` [CYTARABINE] showed an IC50 (COLO-800) of 425 nM, an IC50 (Ca-Ski) greater than 2000 nM and an IC50 (DSH1) greater than 2000 nM. For the same compound, the IC50 (EC-GI-10) was 557 nM, the IC50 (ES3) was 199 nM and the IC50 (EW-18) was greater than 2000 nM. It also gave an IC50 (GI-ME-N) of 1660 nM, an IC50 (GMS-10) of 396 nM and an IC50 (GOTO) of 424 nM. For the same compound, the IC50 (GP5d) was 102 nM, the IC50 (H4) was 274 nM and the IC50 (HAL-01) was 328 nM. The IC50 (HCC1806) was 191 nM, the IC50 (HDLM-2) was greater than 2000 nM and the IC50 (HEL) was 20.5 nM. The IC50 (HuO-3N1) was 1330 nM, the IC50 (KYSE-410) was greater than 2000 nM and the IC50 (KYSE-450) was 1090 nM. It also gave an IC50 (LCLC-97TM1) of 477 nM, an IC50 (M059J) of 1820 nM and an IC50 (MCF7) greater than 2000 nM. It also gave an IC50 (MDA-MB-175-VII) of 1990 nM, an IC50 (MFM-223) greater than 2000 nM and an IC50 (MHH-PREB-1) of 533 nM. For the same compound, the IC50 (MOLT-4) was 89.7 nM, the IC50 (MZ7-mel) was 417 nM and the IC50 (NB5) was 452 nM. The IC50 (NCI-H1155) was 397 nM, the IC50 (NCI-H1437) was 798 nM and the IC50 (NCI-H1648) was greater than 2000 nM. For the same compound, the IC50 (NCI-H1651) was greater than 2000 nM, the IC50 (NCI-H1792) was 1420 nM and the IC50 (NCI-H82) was greater than 2000 nM. It also gave an IC50 (NMC-G1) of 1960 nM, an IC50 (ONS-76) of 390 nM and an IC50 (SK-MEL-2) greater than 2000 nM. It also gave an IC50 (SK-MEL3) greater than 2000 nM, an IC50 (SK-N-DZ) of 1070 nM and an IC50 (SW756) of 719 nM. It also gave an IC50 (TE-1) greater than 2000 nM, an IC50 697 of 10.6 nM and an IC50 (A498) greater than 2000 nM. For the same compound, the IC50 (A673) was 224 nM, the IC50 (ASPC1) was 1390 nM and the IC50 (BCPAP) was 501 nM. The IC50 (BHY) was 898 nM, the IC50 (CAL-33) was 1180 nM and the IC50 (CAL-39) was 998 nM. The IC50 (CAL-54) was 940 nM, the IC50 (TE-12) was greater than 2000 nM and the IC50 (VMRC-RCZ) was 1350 nM. It also gave an IC50 (CCRF-CEM) greater than 2000 nM.
